Assays:
VEGFA = VEGFA expression by qRT-PCR in HEK293 cells transfected with SerRS constructs; assay type: cell-based, human; details: HEK293 cells transfected with construct
Protocol: In FIG. 2A, wild type SerRS (SerRS^WT), its mutants with double substitutions of serine 101 and 241 with alanine or aspartic acid residues (SerRS^S101A/S241A and SerRS^S101D/S241D), or empty vector were transfected into HEK293 cells. The expression levels of SerRS proteins was measured by immunoblot (bottom) and VEGFA expression was determined by qRT-PCR (means±SEM from three independent experiments; ***P<0.0001). […] At 3 day post fertilization (dpf), embryos were harvested and Vegfa expression levels were measured by qRT-PCR (means±SEM, n=125-211; *P<0.01, **P<0.001) (B). The development of intersegmental vessel (ISV) at 3 dpf was examined (C) and the statistics of ISV abnormal branching rescued by SerRS^WT or mutant SerRS mRNA injections was analyzed (D; χ^2-test,* P>0.05 vs SerRS^WT, **P>0.1 vs SerRS-MO, ***P<1×10^−28 vs control-MO). […] In FIG. 2G, the binding of endogenous SerRS on VEGFA promoter during hypoxia course was monitored by ChIP (means±SEM from three independent experiments; *P<0.05, **P<0.005 vs normal). […]
HEK293 cells were transfected with wild type (WT) SerRS or SerRS mutants. […] At 24 hours post-transfection, cells were harvested and VEGFA expression levels were measured by qRT-PCR and relative VEGFA transcription were plotted after being normalized to 1-actin (means±: SEM).

[1] = system: SerRS binding site on human VEGFA promoter; test: EMSA with 32P-labeled 27-bp DNA fragment of the VEGFA promoter; details: recombinant protein
VEGFA promoter = test: Chromatin immunoprecipitation (ChIP) on VEGFA promoter in HEK293 cells; assay type: cell-based, human; details: ChIP and qPCR
Protocol: In FIG. 2A, wild type SerRS (SerRS^WT), its mutants with double substitutions of serine 101 and 241 with alanine or aspartic acid residues (SerRS^S101A/S241A and SerRS^S101D/S241D), or empty vector were transfected into HEK293 cells. The expression levels of SerRS proteins was measured by immunoblot (bottom) and VEGFA expression was determined by qRT-PCR (means±SEM from three independent experiments; ***P<0.0001). […] At 3 day post fertilization (dpf), embryos were harvested and Vegfa expression levels were measured by qRT-PCR (means±SEM, n=125-211; *P<0.01, **P<0.001) (B). The development of intersegmental vessel (ISV) at 3 dpf was examined (C) and the statistics of ISV abnormal branching rescued by SerRS^WT or mutant SerRS mRNA injections was analyzed (D; χ^2-test,* P>0.05 vs SerRS^WT, **P>0.1 vs SerRS-MO, ***P<1×10^−28 vs control-MO). […] In FIG. 2G, the binding of endogenous SerRS on VEGFA promoter during hypoxia course was monitored by ChIP (means±SEM from three independent experiments; *P<0.05, **P<0.005 vs normal).
Cells were fixed with formaldehyde (1% final concentration) for 10 min at room temperature. […] After 3 washes, ChIPed DNA was analyzed on the StepOnePlus Real-Time PCR system using SYBR Select Master Mix (Applied Biosystems). […]

direct binding to 27-bp DNA fragment from the VEGFA promoter [1]: attenuated
Substance: SerRS^S101D/S241D: SerRS with double substitutions of S101 and S241 with aspartic acid, mimics the phosphorylated SerRS
repression of VEGFA transcription (VEGFA): can no longer repress VEGFA transcription
binding on VEGFA promoter (VEGFA promoter): decreased binding on VEGFA promoter
